Laboratory results taken from patent US7829568B2, “Substituted 5,6,7,8-tetrahydroimidazo[1,2-a]pyridin-2-ylamine compounds and their use for producing drugs” (Gruenenthal GmbH, priority 2005, dated 2010).

System: batrachotoxin (BTX) binding site of the sodium channel
Assay: Affinity to the batrachotoxin (BTX) binding site of the sodium channel
Parameters: species or system rat
Settings: for BTX inhibition (rat) (% inhibition): [3H]-batrachotoxinin A20 α-benzoate 10 nM, synaptosomes from rat cerebral cortex, test concentration not given

In the case of CC(C)CC(NC(=O)c1c(N(C)C(=O)c2cccc3ccccc23)nc2n1CCCC2)C(=O)OCc1ccccc1 (stereo not shown) [Example 57, 4-methyl-2-({2-[methyl-(naphthalene-1-carbonyl)-amino]-5,6,7,8-tetrahydro-imidazo[1,2-a]pyridine-3-carbonyl}-amino)-pentanoic acid benzyl ester], the “BTX inhibition (rat) (% inhibition)” value is reported as 31%.
For CCCCN(C(=O)c1cccc(Cl)c1)c1nc2n(c1C(=O)NCCSCc1c(Cl)cccc1Cl)CCCC2 [Example 95, 2-[butyl-(3-chloro-benzoyl)-amino]-5,6,7,8-tetrahydro-imidazo[1,2-a]pyridine-3-carboxylic acid [2-(2,6-dichlor-benzylsulphanyl)-ethyl]-amide], the “BTX inhibition (rat) (% inhibition)” value was 68%.
For CCCCN(C(=O)c1cccc(Cl)c1)c1nc2n(c1C(=O)N1CCN(c3cccc(C(F)(F)F)c3)CC1)CCCC2 [Example 79, N-butyl-3-chloro-N-{3-[4-(3-trifluoromethyl-phenyl)-piperazine-1-carbonyl]-5,6,7,8-tetrahydro-imidazo[1,2-a]pyridin-2-yl}-benzamide], the “BTX inhibition (rat) (% inhibition)” value was 83%.
In the case of CCCCN(C(=O)c1cccc(Cl)c1)c1nc2n(c1C(=O)NCCCn1ccnc1)CCCC2 [Example 9, 2-[butyl-(3-chloro-benzoyl)-amino]-5,6,7,8-tetrahydro-imidazo[1,2-a]pyridine-3-carboxylic acid (3-imidazol-1-yl-propyl)-amide], the “BTX inhibition (rat) (% inhibition)” value is reported as 36%.
CCCCN(C(=O)c1cccc(Cl)c1)c1nc2n(c1C(=O)NC(COC)Cc1ccccc1)CCCC2 (stereo not shown) [Example 86, 2-[butyl-(3-chloro-benzoyl)-amino]-5,6,7,8-tetrahydro-imidazo[1,2-a]pyridine-3-carboxylic acid (1-methoxymethyl-2-phenyl-ethyl)-amide] was tested, and the “BTX inhibition (rat) (% inhibition)” value was 42%.
In the case of CCCCN(C(=O)c1cccc(Cl)c1)c1nc2n(c1C(=O)NCc1ccc(OC(F)(F)F)cc1)CCCC2 [Example 127, 2-[butyl-(3-chloro-benzoyl)-amino]-5,6,7,8-tetrahydro-imidazo[1,2-a]pyridine-3-carboxylic acid 4-trifluoromethoxy-benzylamide], the “BTX inhibition (rat) (% inhibition)” value is reported as 60%.
CN(C(=O)c1ccccc1)c1nc2n(c1C(=O)N1CCN(c3ccc(C(F)(F)F)cc3)CC1)CCCC2 [Example 167, N-methyl-N-{3-[4-(4-trifluoromethyl-phenyl)-piperazine-1-carbonyl]-5,6,7,8-tetrahydro-imidazo[1,2-a]pyridin-2-yl}-benzamide] was tested, and the “BTX inhibition (rat) (% inhibition)” value was 44%.
For CCCCN(C(=O)c1ccc(F)c(F)c1)c1nc2n(c1C(=O)NCCC(C)(C)C)CCCC2 [Example 171, 2-[butyl-(3,4-difluoro-benzoyl)-amino]-5,6,7,8-tetrahydro-imidazo[1,2-a]pyridine-3-carboxylic acid (3,3-dimethyl-butyl)-amide], the “BTX inhibition (rat) (% inhibition)” value was 47%.
CCCCN(C(=O)c1ccc(F)c(F)c1)c1nc2n(c1C(=O)NCCCc1ccccc1)CCCC2 [Example 28, 2-[butyl-(3,4-difluoro-benzoyl)-amino]-5,6,7,8-tetrahydro-imidazo[1,2-a]pyridine-3-carboxylic acid (3-phenyl-propyl)-amide] was tested, and the “BTX inhibition (rat) (% inhibition)” value was 42%.
For CCCCN(C(=O)c1ccc(F)c(F)c1)c1nc2n(c1C(=O)N1CCN(c3ccc(C(F)(F)F)cn3)CC1)CCCC2 [Example 187, N-butyl-3,4-difluoro-N-{3-[4-(5-trifluoromethyl-pyridin-2-yl)-piperazine-1-carbonyl]-5,6,7,8-tetrahydro-imidazo[1,2-a]pyridin-2-yl}-benzamide], the “BTX inhibition (rat) (% inhibition)” value was 41%.
CCCCN(C(=O)c1ccc(F)c(F)c1)c1nc2n(c1C(=O)N1CCN(C(c3ccccc3)c3ccccc3)CC1)CCCC2 [Example 56, N-[3-(4-benzhydryl-piperazine-1-carbonyl)-5,6,7,8-tetrahydro-imidazo[1,2-a]pyridin-2-yl]-N-butyl-3,4-difluoro-benzamide] was tested, and the “BTX inhibition (rat) (% inhibition)” value was 65%.
In the case of CCCCN(C(=O)c1cccc(Cl)c1)c1nc2n(c1C(=O)NCc1cccc(C)c1C)CCCC2 [Example 133, 2-[butyl-(3-chloro-benzoyl)-amino]-5,6,7,8-tetrahydro-imidazo[1,2-a]pyridine-3-carboxylic acid 2,3-dimethyl-benzylamide], the “BTX inhibition (rat) (% inhibition)” value is reported as 34%.
With CN(C(=O)c1cccc2ccccc12)c1nc2n(c1C(=O)N1CCN(CCc3ccccc3)CC1)CCCC2 [Example 174, naphthalene-1-carboxylic acid methyl-[3-(4-phenethyl-piperazine-1-carbonyl)-5,6,7,8-tetrahydro-imidazo[1,2-a]pyridin-2-yl]-amide] the “BTX inhibition (rat) (% inhibition)” value was 47%.
CCCCN(C(=O)c1cccc(Cl)c1)c1nc2n(c1C(=O)N1CCN(c3ccccc3F)CC1)CCCC2 [Example 48, N-butyl-3-chloro-N-{3-[4-(2-fluoro-phenyl)-piperazine-1-carbonyl]-5,6,7,8-tetrahydro-imidazo[1,2-a]pyridin-2-yl}-benzamide] was tested, and the “BTX inhibition (rat) (% inhibition)” value was 89%.
In the case of CCCCN(C(=O)c1ccc(F)c(F)c1)c1nc2n(c1C(=O)N1CCN(c3ccccc3Cl)CC1)CCCC2 [Example 178, N-butyl-N-{3-[4-(2-chloro-phenyl)-piperazine-1-carbonyl]-5,6,7,8-tetrahydro-imidazo[1,2-a]pyridin-2-yl}-3,4-difluoro-benzamide], the “BTX inhibition (rat) (% inhibition)” value is reported as 79%.
In the case of CCCCN(C(=O)c1cccc(Cl)c1)c1nc2n(c1C(=O)Nc1ccc(NC(=O)OC(C)(C)C)cc1)CCCC2 [Example 189, [4-({2-[butyl-(3-chloro-benzoyl)-amino]-5,6,7,8-tetrahydro-imidazo[1,2-a]pyridine-3-carbonyl}-amino)-phenyl]-carbamic acid tert-butyl ester], the “BTX inhibition (rat) (% inhibition)” value is reported as 93%.
CN(C(=O)c1cccc2ccccc12)c1nc2n(c1C(=O)NCc1cc(C(F)(F)F)cc(C(F)(F)F)c1)CCCC2 [Example 15, 2-[Methyl-(naphthalene-1-carbonyl)-amino]-5,6,7,8-tetrahydro-imidazo[1,2-a]pyridine-3-carboxylic acid 3,5-bis-trifluoromethyl-benzylamide] was tested, and the “BTX inhibition (rat) (% inhibition)” value was 68%.
For CN(C(=O)c1cccc2ccccc12)c1nc2n(c1C(=O)N1CCc3c([nH]c4ccccc34)C1)CCCC2 [Example 144, naphthalene-1-carboxylic acid methyl-[3-(1,3,4,9-tetrahydro-b-carboline-2-carbonyl)-5,6,7,8-tetrahydro-imidazo[1,2-a]pyridin-2-yl]-amide], the “BTX inhibition (rat) (% inhibition)” value was 31%.
For CCCCN(C(=O)c1cccc(Cl)c1)c1nc2n(c1C(=O)NCCOc1ccccc1)CCCC2 [Example 107, 2-[butyl-(3-chloro-benzoyl)-amino]-5,6,7,8-tetrahydro-imidazo[1,2-a]pyridine-3-carboxylic acid (2-phenoxy-ethyl)-amide], the “BTX inhibition (rat) (% inhibition)” value was 39%.
With “[^3H]-batrachotoxinin A20 α-benzoate [reference compound]” the Kd (radioligand at BTX binding site, rat cerebral cortex synaptosomes) was 24.6 ± 1.56 nM.
With CCCCN(C(=O)c1cccc(Cl)c1)c1nc2n(c1C(=O)NC(c1ccccc1)c1ccccc1)CCCC2 [Example 147, 2-[butyl-(3-chloro-benzoyl)-amino]-5,6,7,8-tetrahydro-imidazo[1,2-a]pyridine-3-carboxylic acid benzhydryl-amide] the “BTX inhibition (rat) (% inhibition)” value was 56%.
With CCCCN(C(=O)c1cccc(Cl)c1)c1nc2n(c1C(=O)N1CCN(CCCc3ccccc3)CC1)CCCC2 [Example 26, N-butyl-3-chloro-N-{3-[4-(3-phenyl-propyl)-piperazine-1-carbonyl]-5,6,7,8-tetrahydro-imidazo[1,2-a]pyridin-2-yl}-benzamide] the “BTX inhibition (rat) (% inhibition)” value was 93%.
In the case of CCCCN(C(=O)c1ccc(F)c(F)c1)c1nc2n(c1C(=O)N1CCN(Cc3ccc4c(c3)OCO4)CC1)CCCC2 [Example 137, N-[3-(4-benzo[1,3]dioxol-5-ylmethyl-piperazine-1-carbonyl)-5,6,7,8-tetrahydro-imidazo[1,2-a]pyridin-2-yl]-N-butyl-3,4-difluor-benzamide], the “BTX inhibition (rat) (% inhibition)” value is reported as 72%.
CN(C(=O)c1cccc(Cl)c1)c1nc2n(c1C(=O)NCCC(c1ccccc1)c1ccccc1)CCCC2 [Example 128, 2-[(3-chloro-benzoyl)-methyl-amino]-5,6,7,8-tetrahydro-imidazo[1,2-a]pyridine-3-carboxylic acid (3,3-diphenyl-propyl)-amide] was tested, and the “BTX inhibition (rat) (% inhibition)” value was 85%.
With CCCCN(C(=O)c1cccc(Cl)c1)c1nc2n(c1C(=O)NC1CCN(Cc3cc(OC)c(OC)cc3Br)C1)CCCC2 (stereo not shown) [Example 172, 2-[butyl-(3-chloro-benzoyl)-amino]-5,6,7,8-tetrahydro-imidazo[1,2-a]pyridine-3-carboxylic acid [1-(2-bromo-4,5-dimethoxy-benzyl)-pyrrolidin-3-yl]-amide] the “BTX inhibition (rat) (% inhibition)” value was 96%.
With CCCCN(C(=O)c1cccc(Cl)c1)c1nc2n(c1C(=O)NC(C)c1ccc3ccccc3c1)CCCC2 (stereo not shown) [Example 141, 2-[butyl-(3-chloro-benzoyl)-amino]-5,6,7,8-tetrahydro-imidazo[1,2-a]pyridine-3-carboxylic acid (1-naphthalen-2-yl-ethyl)-amide] the “BTX inhibition (rat) (% inhibition)” value was 41%.
CN(C(=O)c1cccc(Cl)c1)c1nc2n(c1C(=O)N1CC=C(c3ccc(F)cc3)CC1)CCCC2 [Example 61, 3-chloro-N-{3-[4-(4-fluorophenyl)-3,6-dihydro-2H-pyridine-1-carbonyl]-5,6,7,8-tetrahydro-imidazo[1,2-a]pyridin-2-yl}-N-methyl-benzamide] was tested, and the “BTX inhibition (rat) (% inhibition)” value was 38%.
For CN(C(=O)Cc1ccccc1)c1nc2n(c1C(=O)N(C)C1CCN(Cc3ccc(-c4ccccc4)cc3)C1)CCCC2 (stereo not shown) [Example 168, 2-(methyl-phenylacetyl-amino)-5,6,7,8-tetrahydro-imidazo[1,2-a]pyridine-3-carboxylic acid (1-biphenyl-4-ylmethyl-pyrrolidin-3-yl)-methyl-amide], the “BTX inhibition (rat) (% inhibition)” value was 92%.
